≈ marks a conversion by molar mass, not a printed value.
Key:
[1] = system: E. coli acrF knockout strain; assay: MIC, efflux pump knockout acrF; format: cell-based; details: Escherichia coli, read-out: MIC acrF
Procedure: (§1) The inoculum used for all the experiments is derived from a single seed lot that is maintained as glycerol stocks at −80 °C and are sub cultured on LB plate for isolated colonies. Single colony of each strain is grown in M9 medium. All test compound stocks and dilutions are prepared in DMSO. Serial two-fold dilutions of compounds are prepared separately, with the concentrations ranging from 2 mg/mL to 0.015 mg/mL. To 150 µl (3–7 × 10^5 CFU/ml) of bacterial culture in 96 well microtitre plates, 3 μL compound from each of the dilutions is added to respective wells to obtain final concentrations ranging from 40 µg/mL to 0.3 µg/mL of the test compounds. Media control, culture control and appropriate reference drug controls are included. […] Growth is monitored by checking absorbance at 600 nm (A600). […] The samples from MIC and above concentrations are plated for MBC (Minimum Bactericidal Concentration). The samples are diluted 1:10 and plated on LB agar plates. […] The killing kinetics is determined by enumerating survivors at various time points following compound exposure. E. coli cells (~10^7 CFU/ml; A600 of 0.1) are treated with various concentrations (40 µg/mL to 0.3 µg/mL) of compounds in a 96-well microtitre plate. […] Data is expressed as the log10 CFU for each drug treatment.

[2] = system: E. coli acrZ knockout strain; assay: MIC, efflux pump knockout acrZ; format: cell-based; details: Escherichia coli, read-out: MIC acrZ
Procedure: as §1

[3] = system: E. coli mdtG knockout strain; assay: MIC, efflux pump knockout mdtG; format: cell-based; details: Escherichia coli, read-out: MIC mdtG
Procedure: as §1

[4] = system: E. coli mdtK knockout strain; assay: MIC, efflux pump knockout mdtK; format: cell-based; details: Escherichia coli, read-out: MIC mdtK
Procedure: as §1

[5] = system: E. coli emrE knockout strain; assay: MIC, efflux pump knockout emrE; format: cell-based; details: Escherichia coli, read-out: MIC emrE
Procedure: as §1

[6] = system: E. coli macB knockout strain; assay: MIC, efflux pump knockout macB; format: cell-based; details: Escherichia coli, read-out: MIC macB
Procedure: as §1

[7] = system: WT E. coli; assay: MIC on WT E. coli in the presence of PAβN; format: cell-based; details: Escherichia coli
Procedure: as §1

[8] = Intravenous pharmacokinetics; format: in vivo, BALB/c mice; details: for AUC / AUC(0-inf) / AUC(0-t) / clearance / half-life / Vd: BALB/c, mouse, in vivo; for AUC: iv, 2 mg/kg, used for estimation of oral bioavailability; for AUC(0-inf) / AUC(0-t) / clearance / half-life / Vd / AUMC0-∞ / Clast / Kel(β) / extr AUC: mice, single IV dose 2 mg/kg; for Vd: read-out: Vss; for condition of mice post dose and throughout the study: single intravenous dose of 2 mg/kg or single oral dose of 10 mg/kg
Procedure: The test substances were formulated in the vehicle DMSO: PEG400: Ethanol (absolute): Water at ratio of 10:40:20:30 (v/v). The required quantity of test compound was weighed, transferred into a vial and dissolved using the appropriate volumes of DMSO, PEG400, Ethanol (absolute) and sterile water in a sequential manner until a clear solution was obtained. The test substance was administered intravenously as a bolus via the tail vein at a dose volume of 5 ml/kg.
(§2) At 5 min, 15 min, 30 min, 1 h, 2 h, 4 h, 8 h, and 24 h time points, and prior to sampling, mice were anaesthetized with isoflurane. From each mouse, two blood samples were drawn; the 1st was non-terminal (0.1 ml) and the 2nd terminal, by retro-orbital plexus puncture using heparanised capillary tubes. Blood was collected in 2 ml Eppendorf tubes containing 0.01 ml of 10% K2EDTA as anticoagulant, mixed gently and placed in ice before centrifugation. Blood was centrifuged at 10,000 rpm for 5 min, and plasma was harvested and stored at −80 °C until bioanalysis.
(§3) Ultrafast liquid chromatography mass spectrometric method was used for the estimation of test compounds in pre-clinical study samples. The analysis was performed using an API 4000 LC-MS/MS system. The interface used with the API 4000 LC-MS/MS was a Turbo Ion spray. The positive ions were measured in MRM mode. The analyte was extracted using a solid-phase extraction procedure. The data was acquired by and integrated using the Applied Biosystems “Analyst” version 1.5.2 software. Linear regression, with 1/x^2 weighting was used for calibration.
(§4) Non-compartmental (NCA) PK analysis was performed using MS Excel. The linear trapezoidal rule was used to estimate the AUC. The NCA analysis was performed using the following equations (3) on mean concentration time data: AUC=Σ[(Ci1+Ci2)/2]∗[ti2−ti1] AUMC=Σ[((Ci1∗ti1)+(Ci2∗ti2))/2)∗(ti2−ti1)] AUCt−∞=Clast/Kel AUC0−∞=AUC0−t+AUCt−∞ AUCextrapolated(%)=[AUCt−∞/AUC0−∞]∗100 where, Ci1 and Ci2 are the concentrations at times ti1 and ti2, respectively. Kel=ln(Cx/Cy)/(ty−tx) where, Kel is the first order elimination rate constant, ln is the natural logarithm, Cx and Cy are the first and last concentrations, respectively on the linear portion of the terminal phase of the concentration-time profile, and ty and tx are the corresponding time points. T1/2=0.693/Kel Cl=Doseiv/AUC0−∞ Vss=(AUMC0−∞/AUC0−∞)∗(Doseiv/AUC0−∞) Cmax and tmax were visually estimated from the mean oral conc-time profile F(%)=(AUCpo/AUCiv)∗(Doseiv/Dosepo)∗100

[9] = Oral pharmacokinetics; format: in vivo, BALB/c mice; set-up: Ke: unit not given here; details: for AUC / AUC(0-inf) / AUC(0-t) / Cmax / Tmax / half-life / bioavailability: BALB/c, mouse, plasma; for AUC: po; for AUC(0-inf) / AUC(0-t) / Cmax / Tmax / half-life / Ke / ext AUC: mice
Procedure: The test substances were formulated in 10% DMSO in 0.25% carboxy methyl cellulose. […] Then 3.6 ml of 0.25% of CMC was added in aliquots to the DMSO solution, with constant grinding using a pestle until a uniform suspension was obtained. […]
as §2, §3, §4

[10] = system: E. coli BW25113; assay: Neutropenic thigh infection, E. coli BW25113; format: in vivo, BALB/c mice
[11] = system: clinical isolate of E. coli (Strain No. 371); assay: Neutropenic thigh infection, E. coli clinical isolate; format: in vivo, BALB/c mice; details: for Log10CFU Mean Diff. vs. Untreated Controls: Study TI-2014-023, Clinical Isolate N. 371, 100mg/kg per oral; for efficacy in thigh infection model (in words): clinical isolate of E. coli
[12] = system: Shigella sonnei clinical strain; assay: MIC, Shigella sonnei; format: cell-based
Procedure: as §1

Row | SMILES | AUC [8] [ng·h/mL] | AUC(0-inf) [8] [ng·h/mL] | AUC(0-t) [8] [ng·h/mL] | clearance [8] [mL/min/kg] | half-life [8] [min] | Vd [8] [L/kg] | AUMC0-∞ [8] | Clast [8] [ng/mL] | Kel(β) [8] | extr AUC [8] [%] | condition of mice post dose and throughout the study [8] | AUC ([9]; 10 mg/kg) [ng·h/mL] | AUC(0-inf) ([9]; single oral dose 10 mg/kg) [ng·h/mL] | AUC(0-t) ([9]; single oral dose 10 mg/kg) [ng·h/mL] | Cmax ([9]; single oral dose 10 mg/kg) [ng/mL] | Tmax ([9]; single oral dose 10 mg/kg) [min] | half-life ([9]; single oral dose 10 mg/kg) [min] | bioavailability ([9]; oral 10 mg/kg vs IV 2 mg/kg) [%] | Ke ([9]; single oral dose 10 mg/kg) | ext AUC ([9]; single oral dose 10 mg/kg) [%] | other results
1 | Cc1sc(NC(=O)c2ccc([N+](=O)[O-])s2)nc1-c1ccccc1 [compound 7, N-(5-Methyl-4-phenylthiazol-2-yl)-5-nitrothiophene-2-carboxamide] |  |  |  |  |  |  |  |  |  |  |  |  |  |  |  |  |  |  |  |  | MIC [1]: > 40 µg/mL; MIC [2]: > 40 µg/mL; MIC [3]: > 40 µg/mL; MIC [4]: > 40 µg/mL; MIC [5]: > 40 µg/mL; MIC [6]: > 40 µg/mL; MIC [7]: < 0.3 µg/mL
2 | O=C(Nc1nc(-c2ccc(F)cc2)cs1)c1ccc([N+](=O)[O-])s1 [compound 15, N-(4-(4-Fluorophenyl)thiazol-2-yl)-5-nitrothiophene-2-carboxamide] | 910 | 911 | 900 | 36.7 | 30 | 0.4 | 0.17 | 12 | 1.51 ^-h | 0.9 | visibly normal | 750 | 760 | 750 | 1200 | 15 | 289 | 16.5 | 0.14 | 1.5 | AUC ([9]; 100 mg/kg): 10300 ng·h/mL; AUC(0-t) ([9]; single oral dose 100 mg/kg): 10300 ng·h/mL; Cmax ([9]; single oral dose 100 mg/kg): 3800 ng/mL; Tmax ([9]; single oral dose 100 mg/kg): 15 min; bioavailability ([9]; oral 100 mg/kg vs IV 2 mg/kg): 22.6%; Log10CFU Mean Diff. vs. Untreated Controls ([10]; Study TI-2014-008, BW25113, 30mg/kg per oral): 0.9167 Log10CFU; Log10CFU Mean Diff. vs. Untreated Controls ([10]; Study TI-2014-008, BW25113, 100mg/kg per oral): 1.643 Log10CFU; efficacy in thigh infection model (in words) ([10]; WT E. coli BW25113): significantly bactericidal; Log10CFU Mean Diff. vs. Untreated Controls [11]: 1.553 Log10CFU; efficacy in thigh infection model (in words) [11]: significantly bactericidal
3 | O=C(Nc1nc(-c2ccc(F)cc2F)cs1)c1ccc([N+](=O)[O-])s1 [compound 12, N-(4-(2,4-difluorophenyl)thiazol-2-yl)-5-nitrothiophene-2-carboxamide] | 570 | 570 | 570 | 58.7 | 36 | 1.64 | 0.26 | 3 | 1.18 ^-h | 0.4 | visibly normal | 760 | 760 | 750 | 650 | 15 | 61.8 | 26.7 | 0.67 | 0.5 | Log10CFU Mean Diff. vs. Untreated Controls [11]: 1.907 Log10CFU; efficacy in thigh infection model (in words) [11]: significantly bactericidal; MIC Shigella sonnei [12]: 5 µg/mL (≈ 13.6 µM)

From article PMC5940854, “Nitrothiophene carboxamides, a novel narrow spectrum antibacterial series: Mechanism of action and Efficacy” (Scientific Reports, 2018)
